The nature of assay [1]: Perfect off-state by site-specific incorporation of o-nitrobenzyl (o-NB) unit into RNase S' was determined after photolysis at 10 x E5 M/min.
Assay [2] can be described thus: Perfect off-state by site-specific incorporation of o-nitrobenzyl (o-NB) unit into RNase S' was determined before photolysis at 10 x E5 M/min.
Assay [3] in a line: Michaelis-Menten parameter value for the incorporation of photo-labile caged moiety into a proximity to the active site.
A short description of assay [4]: Michaelis-Menten parameter(Kcat) value for the incorporation of photo-labile caged moiety into a proximity to the active site.
A short description of assay [5]: Michaelis-Menten parameter(Km) value for the incorporation of photo-labile caged moiety into a proximity to the active site.

Non-standard residues stand in square brackets, D forms with d. Residues, ends and D or L forms follow the SMILES beside them. *: point of attachment. X2 = COC(=O)C(N*)c1ccccc1[N+](=O)[O-]; X3 = O=C(OCc1ccccc1[N+](=O)[O-])*; X1 = O=[N+]([O-])c1ccccc1CO*; Nle = CCCC[C@H](N)C(=O)O

`CCCC[C@H](NC(=O)[C@H](Cc1c[nH]cn1)NC(=O)[C@H](CCC(=O)NC(C(=O)OC)c1ccccc1[N+](=O)[O-])NC(=O)[C@H](CCCN=C(N)N)NC(=O)[C@H](CCC(=O)O)NC(=O)[C@H](Cc1ccccc1)NC(=O)[C@H](CCCCN)NC(=O)[C@H](C)NC(=O)[C@H](C)NC(=O)[C@H](C)NC(=O)[C@@H](NC(=O)[C@H](CCC(=O)O)NC(=O)[C@@H](N)CCCCN)[C@@H](C)O)C(=O)N[C@@H](CC(=O)O)C(=O)N[C@@H](CO)C(=O)O` (stereo partly specified) (H-KETAAAKFERE(X2)H[Nle]DS-OH) had an RNase S' enzyme activity in assay [1] of 0.37. Moreover, in assay [2], the Photolysis is 0.

For `CCCC[C@H](NC(=O)[C@H](Cc1c[nH]cn1)NC(=O)[C@H](CCC(N)=O)NC(=O)[C@H](CCCN=C(N)N)NC(=O)[C@H](CCC(=O)O)NC(=O)[C@H](Cc1ccccc1)NC(=O)[C@H](CCCCNC(=O)OCc1ccccc1[N+](=O)[O-])NC(=O)[C@H](C)NC(=O)[C@H](C)NC(=O)[C@H](C)NC(=O)[C@@H](NC(=O)[C@H](CCC(=O)O)NC(=O)[C@@H](N)CCCCN)[C@@H](C)O)C(=O)N[C@@H](CC(=O)O)C(=O)N[C@@H](CO)C(=O)O` (H-KETAAAK(X3)FERQH[Nle]DS-OH), in assay [1], the RNase S' enzyme activity was determined as 1.04. For the same compound, the Photolysis in assay [2] was determined as 1.1.

As for `CCCC[C@H](NC(=O)[C@H](Cc1c[nH]cn1)NC(=O)[C@H](CCC(N)=O)NC(=O)[C@H](CCCN=C(N)N)NC(=O)[C@H](CCC(=O)OCc1ccccc1[N+](=O)[O-])NC(=O)[C@H](Cc1ccccc1)NC(=O)[C@H](CCCCN)NC(=O)[C@H](C)NC(=O)[C@H](C)NC(=O)[C@H](C)NC(=O)[C@@H](NC(=O)[C@H](CCC(=O)O)NC(=O)[C@@H](N)CCCCN)[C@@H](C)O)C(=O)N[C@@H](CC(=O)O)C(=O)N[C@@H](CO)C(=O)O` (H-KETAAAKFE(X1)RQH[Nle]DS-OH), in assay [1], the RNase S' enzyme activity was 0.97. Further, in assay [2], the Photolysis came to 0.99.

`CCCC[C@H](NC(=O)[C@H](Cc1c[nH]cn1)NC(=O)[C@H](CCC(N)=O)NC(=O)[C@H](CCCN=C(N)N)NC(=O)[C@H](CCC(=O)O)NC(=O)[C@H](Cc1ccccc1)NC(=O)[C@H](CCCCN)NC(=O)[C@H](C)NC(=O)[C@H](C)NC(=O)[C@H](C)NC(=O)[C@@H](NC(=O)[C@H](CCC(=O)O)NC(=O)[C@@H](N)CCCCN)[C@@H](C)O)C(=O)N[C@@H](CC(=O)O)C(=O)N[C@@H](CO)C(=O)O` (H-KETAAAKFERQH[Nle]DS-OH) gave a Photolysis in assay [2] of 1.02. Besides, the k cat in assay [3] was 0.0678 s⁻¹.

For the compound `CCCC[C@H](NC(=O)[C@H](Cc1c[nH]cn1)NC(=O)[C@H](CCC(N)=O)NC(=O)[C@H](CCCN=C(N)N)NC(=O)[C@H](CCC(=O)O)NC(=O)[C@H](Cc1ccccc1)NC(=O)[C@H](CCCCN)NC(=O)[C@H](C)NC(=O)[C@H](C)NC(=O)[C@H](C)NC(=O)[C@@H](NC(=O)[C@H](CCC(=O)OCc1ccccc1[N+](=O)[O-])NC(=O)[C@@H](N)CCCCN)[C@@H](C)O)C(=O)N[C@@H](CC(=O)O)C(=O)N[C@@H](CO)C(=O)O` (H-KE(X1)TAAAKFERQH[Nle]DS-OH), the RNase S' enzyme activity in assay [1] is 0.81. The Photolysis in assay [2] came out at 0.96.

`CCCC[C@H](NC(=O)[C@H](Cc1c[nH]cn1)NC(=O)[C@H](CCC(N)=O)NC(=O)[C@H](CCCN=C(N)N)NC(=O)[C@H](CCC(=O)O)NC(=O)[C@H](Cc1ccccc1)NC(=O)[C@H](CCCCN)NC(=O)[C@H](C)NC(=O)[C@H](C)NC(=O)[C@H](C)NC(=O)[C@@H](NC(=O)[C@H](CCC(=O)O)NC(=O)[C@@H](N)CCCCN)[C@@H](C)O)C(=O)N[C@@H](CC(=O)OCc1ccccc1[N+](=O)[O-])C(=O)N[C@@H](CO)C(=O)O` (H-KETAAAKFERQH[Nle]D(X1)S-OH) displayed an RNase S' enzyme activity in assay [1] of 0.78. Besides, the Photolysis in assay [2] is 0.29. The k cat in assay [4] amounted to 0.054 s⁻¹. For the same compound, the Km (commonly the substrate concentration at which the rate is half of its maximum) in assay [5] was 1130 µM.

As to `CCCC[C@H](NC(=O)[C@H](Cc1c[nH]cn1)NC(=O)[C@H](CCC(N)=O)NC(=O)[C@H](CCCN=C(N)N)NC(=O)[C@H](CCC(=O)O)NC(=O)[C@H](Cc1ccccc1)NC(=O)[C@H](CCCCN)NC(=O)[C@H](C)NC(=O)[C@H](C)NC(=O)[C@H](C)NC(=O)[C@@H](NC(=O)[C@H](CCC(=O)O)NC(=O)[C@@H](N)CCCCNC(=O)OCc1ccccc1[N+](=O)[O-])[C@@H](C)O)C(=O)N[C@@H](CC(=O)O)C(=O)N[C@@H](CO)C(=O)O` (H-K(X3)ETAAAKFERQH[Nle]DS-OH), the RNase S' enzyme activity in assay [1] is 1.04. The Photolysis in assay [2] was found to be 1.01.
